Results from PubChem BioAssay (NCI).
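Briefly, cells in 96-well plates were exposed to five compound concentrations for 48 h, and endpoints were estimated by linear interpolation. Here, GI50 denotes the concentration required for 50% inhibition of growth. The concentration for full growth arrest is given as TGI.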

Assays:
Experiment in all cases: growth of human tumour cells (NCI), 48 h
UACC-257 melanoma = tested on: UACC-257 melanoma
A549 NSCLC = tested on: A549 NSCLC
HCT-15 colon = tested on: HCT-15 colon
SN12C renal = tested on: SN12C renal
UO-31 renal = tested on: UO-31 renal
SW-620 colon = tested on: SW-620 colon
HL-60(TB) leukemia = tested on: HL-60(TB) leukemia
T-47D breast = tested on: T-47D breast
NCI-H460 lung = tested on: NCI-H460 lung
CAKI-1 renal = tested on: CAKI-1 renal

| SMILES | GI50 (UACC-257 melanoma) [µM] | TGI (UACC-257 melanoma) [µM] | GI50 (A549 NSCLC) [µM] | TGI (A549 NSCLC) [µM] | GI50 (HCT-15 colon) [µM] | TGI (HCT-15 colon) [µM] | GI50 (SN12C renal) [µM] | TGI (SN12C renal) [µM] | GI50 (UO-31 renal) [µM] | TGI (UO-31 renal) [µM] | GI50 (SW-620 colon) [µM] | TGI (SW-620 colon) [µM] | GI50 (HL-60(TB) leukemia) [µM] | TGI (HL-60(TB) leukemia) [µM] | GI50 (T-47D breast) [µM] | TGI (T-47D breast) [µM] | GI50 (NCI-H460 lung) [µM] | TGI (NCI-H460 lung) [µM] | GI50 (CAKI-1 renal) [µM] | TGI (CAKI-1 renal) [µM] |
| --- | --- | --- | --- | --- | --- | --- | --- | --- | --- | --- | --- | --- | --- | --- | --- | --- | --- | --- | --- | --- |
| COC(=O)Nc1nc2ccc(Oc3ccc(NC(=O)Nc4cccc(Br)c4)cc3)cc2[nH]1 | 1.95 | > 16 | 4.24 | > 13.4 | 2.3 | > 25 | 4.65 | > 25 | > 16.6 | > 25 | 1.48 | 17.6 | 1.06 | > 10.6 | 2.17 | > 16.7 | 1.27 | > 13.5 | 8.74 | > 25 |
| O=C1c2ccccc2-c2c1c1ccc([N+](=O)[O-])cc1c(=O)n2CCNCCCNCCn1c2c(c3ccc([N+](=O)[O-])cc3c1=O)C(=O)c1ccccc1-2 | 8.89 | 25.1 | 0.521 | 17.6 | 0.197 | 16.1 | 0.144 | 4.04 | 0.541 | 6.84 | 0.0641 | 5.68 | 1.5 | 50 | 2.07 | 11.3 | 2.68 | 18.7 | 0.822 | 21.7 |
| NC(N)=N/N=C/c1c(-c2cccs2)nc2sccn12 | 20.3 | 37.7 | 21.7 | 45.1 | 15.4 | 28.8 | 13.4 | 26.9 | 17 | 33.7 | 12.8 | 28.2 | 12.8 | 39 | 14.6 | 28.6 | 14.7 | 39.7 | 2.57 | 16 |
| CCCCCCCCCCCCCC[P+](CCCCCC)(CCCCCC)CCCCCC | 0.0755 | 0.79 | 0.292 | > 100 | 0.27 | > 100 | 0.041 | 1.17 | 0.29 |  | 0.0341 | 1.15 | 0.0303 | 0.0966 | 0.0501 |  | 0.315 | 1.22 | 0.236 | 0.771 |
| COc1cc([C@@H]2c3cc4c(cc3C(Br)[C@H]3COC(=O)[C@H]23)OCO4)cc(OC)c1OC (some centres not stated) | 0.214 | > 100 | 0.313 | > 100 | 0.253 | > 100 | 0.549 | > 100 | 0.418 | > 100 | 0.194 | > 100 | 0.223 |  | > 100 | > 100 | 0.204 | 0.547 | 0.117 | > 48.4 |
| CC(=N\O)/C(C)=N/O.CC(=N\O)/C(C)=N/O.CC(=N\O)/C(C)=N/O.CC(=N\O)/C(C)=N/O.[Cu].[Cu] | 20.2 | 34.5 | 23 | 48.5 | 20.6 | 42.1 | 18.8 | 35.2 | 13.4 | 27.3 | 21.5 | 45.9 | 26.4 | 44.4 | 18.4 | 33.7 | 20.4 | 38.5 | 20.3 | 34.6 |
